According to ChEMBL document CHEMBL1201862, “PubChem BioAssay data set” (2004):
Activity calls are given as the source filed them.

Assays:
[1] = target: T1, Dual specificity protein phosphatase 6 (Rattus norvegicus, UniProt Q64346); experiment: inhibition of rat DUSP6 enzyme activity – biochemical, in vitro, primary screen (AID 425)
T1 sequence (Q64346 whole entry): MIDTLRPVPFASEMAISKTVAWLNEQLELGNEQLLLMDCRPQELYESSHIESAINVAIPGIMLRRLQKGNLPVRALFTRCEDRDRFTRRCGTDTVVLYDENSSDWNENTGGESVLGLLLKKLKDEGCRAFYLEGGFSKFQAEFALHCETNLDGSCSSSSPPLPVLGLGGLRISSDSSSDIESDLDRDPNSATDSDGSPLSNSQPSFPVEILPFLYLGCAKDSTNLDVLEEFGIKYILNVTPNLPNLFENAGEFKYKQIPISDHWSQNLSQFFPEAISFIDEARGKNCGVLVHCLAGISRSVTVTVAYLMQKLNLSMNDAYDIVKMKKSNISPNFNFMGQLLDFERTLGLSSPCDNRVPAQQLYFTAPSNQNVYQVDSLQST

[2] = target: Tyrosine-protein phosphatase non-receptor type 5 (Homo sapiens, UniProt P54829); experiment: PTPN5 enzyme inhibition – biochemical, fluorescence intensity, uHTS hits, confirmation (AID 602372); format: functional; settings: read-out: IC50_Mean
[3] = target: T1, Dual specificity protein phosphatase 6; format: functional
[4] = target: T2, Dual specificity protein phosphatase 3 (Homo sapiens, UniProt P51452); experiment: VHR1 phosphatase inhibitors, primary screen, biochemical, absorbance, uHTS (AID 1654)
[5] = target: T2, Dual specificity protein phosphatase 3; experiment: VHR phosphatase inhibition, dose response, selectivity assay for STEP inhibitor project, biochemical (AID 602374); format: functional; settings: read-out: IC50_Mean
[6] = target: T3, Tyrosine-protein phosphatase non-receptor type 7 (Homo sapiens, UniProt P35236); experiment: redox-active compounds inhibiting HePTP phosphatase – biochemical, fluorescence, mechanism study (AID 2068); format: functional
T3 sequence (P35236 whole entry): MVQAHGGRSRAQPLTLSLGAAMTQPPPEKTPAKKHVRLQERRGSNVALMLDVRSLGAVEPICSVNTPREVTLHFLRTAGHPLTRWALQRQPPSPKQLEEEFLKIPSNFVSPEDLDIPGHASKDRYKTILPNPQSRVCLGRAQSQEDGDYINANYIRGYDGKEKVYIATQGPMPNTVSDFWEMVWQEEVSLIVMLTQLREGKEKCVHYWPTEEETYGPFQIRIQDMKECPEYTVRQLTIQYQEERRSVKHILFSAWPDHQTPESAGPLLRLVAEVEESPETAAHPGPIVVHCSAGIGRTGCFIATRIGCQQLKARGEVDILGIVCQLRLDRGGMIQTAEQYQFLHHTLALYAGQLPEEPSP

[7] = target: T2, Dual specificity protein phosphatase 3; experiment: SAR VHR1 absorbance Assay for In Vitro dose response studies. [Related pubchem assays (depositor defined):AID1654, AID1661, AID1878, AID1992, AID2004]
[8] = target: Tyrosine-protein phosphatase non-receptor type 11 (Homo sapiens, UniProt Q06124); experiment: PTPN11 enzyme inhibitors – biochemical, selectivity assay for STEP inhibitor project, dose response (AID 602367); format: functional; settings: read-out: IC50_Mean
[9] = target: T2, Dual specificity protein phosphatase 3; experiment: SAR VHR1 Fluorescent Assay for In Vitro dose response studies. [Related pubchem assays (depositor defined):AID1654, AID1661, AID1878, AID1992, AID2004, AID2070, AID2085]; format: functional
[10] = target: T2, Dual specificity protein phosphatase 3; experiment: VHR1 phosphatase inhibitors, biochemical (AID 1878)
HEK293 [11] = experiment: cells; settings: Homo sapiens
HEK293 [12] = experiment: cells; settings: Homo sapiens; remark: listed apart in the source
[13] = viability loss of HMLE_sh_eGFP cells – cell-based, luminescence, counter-screen for HMLE_sh_ECad selective toxicity project, dose response (AID 463074); format: functional, Homo sapiens;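 note: HMLE human mammary epithelial cells expressing control shRNA against eGFP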
[14] = viability of HCT116 lacking mutant beta-catenin – cell-based, human colon tumor, dose response (AID 1045); format: functional;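 note: HCT116 colon tumor cells with beta catenin knocked out; cells exposed to compound for 60 hours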
[15] = Luminescence Cell-Based Dose Retest to Confirm Inhibitors of Cancer Stem Cells. [Related pubchem assays (depositor defined):AID2717, AID2721]; format: functional; settings: Homo sapiens
[16] = viability of PTEN-deleted HCT116 cells – cell-based, HCT116 PTEN knockout, dose response (AID 1047); format: functional;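 note: HCT116 colon tumor cells with PTEN knocked out; cells exposed to compound for 60 hours before readout; potency for loss of cell viability measured by luminescence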
Jurkat = experiment: blockers of NF-kB activation in T cells – Jurkat, luciferase reporter, luminescence, B- and T-cell, dose response (AID 489004); format: functional, cell-based; settings: Homo sapiens;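 note: NF-kB luciferase reporter Jurkat cells stimulated with PMA plus ionomycin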
[17] = DRD fibroblast viability loss – cell-based, non-viral oncogenic, luminescence, dose response (AID 1934); format: functional; settings: Homo sapiens
BJ [18] = experiment: growth inhibition of engineered Ras-driven BJ cells – cell-based, alamar blue fluorescence, cherrypicked samples, dose response (AID 2631); format: functional; settings: Homo sapiens;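 note: confirmatory dose-response assay in RAS-dependent BJ fibroblasts engineered with TERT, LT and ST, with cytotoxicity read by fluorescence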
BJ [19] = experiment: BJ-TERT fibroblast viability loss – cell-based, RAS-independent, luminescence, dose response (AID 1933); format: functional; settings: Homo sapiens
[20] = A549 cell cytotoxicity, dose response, cytotoxicity control, plate reader, cherry-pick, antagonist series (AID 743412); format: functional, cell-based
[21] = blockers of bursicon-stimulated LGR2 cAMP reporter – cell-based, HEK293, CRE-luciferase reporter, cherry pick, set 2, dose response (AID 743343); format: functional;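 note: transfected cells were stimulated with diluted bursicon conditioned medium after compound addition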
BJ [22] = experiment: BJ-TERT-LT-ST fibroblast viability loss – cell-based, RAS-independent, luminescence, dose response (AID 1935); format: functional; settings: Homo sapiens;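 note: BJ fibroblasts immortalized with TERT plus LT and ST oncogenes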
[23] = luciferase reporter signal reduction – luminescence, H4-C neuroglioblastoma cells, dose response (AID 2458); format: functional, cell-based;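 note: H4 neuroglioblastoma cells stably carrying a luciferase reporter gene fusion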
[24] = alpha-synuclein stem-loop translation blockers – luminescence, H4 neuroglioblastoma cells, dose confirmation, confirmation (AID 2454); format: functional, cell-based;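 note: H4 neuroglioblastoma cells carrying an alpha-synuclein 5'UTR luciferase reporter; potency for inhibition of the luciferase signal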
[25] = viability loss in HEK293 cells – cell-based, plate reader, cherry-picked samples, cytotoxicity control, dose response (AID 743446); format: functional
[26] = toxicity toward HepG2 liver cells – cell-based, plate reader, cherry-pick, antagonist series, cytotoxicity control, dose response (AID 743416); format: functional
BJ [27] = experiment: cells; format: functional, cell-based; settings: Homo sapiens
[28] = HEK-293T viability loss, compound-treated – cell-based, uHTS hits, cytotoxicity control for B/T-cell NF-kB inhibitor project, dose response (AID 489019); format: functional;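 note: IC50 reflects cytotoxicity as loss of cell viability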
[29] = target: T4, Heat shock factor protein 1 (Mus musculus, UniProt P38532); experiment: decrease of HSF1-responsive luciferase luminescence – cell-based, NIH3T3, dose retest, confirmation (AID 2382); format: functional;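 note: NIH3T3 fibroblasts with HSF1-driven luciferase reporter stressed by proteasome inhibitor MG132; luminescence from HSF1-driven luciferase expression after 8 hours of MG132 stress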
T4 sequence (P38532 whole entry): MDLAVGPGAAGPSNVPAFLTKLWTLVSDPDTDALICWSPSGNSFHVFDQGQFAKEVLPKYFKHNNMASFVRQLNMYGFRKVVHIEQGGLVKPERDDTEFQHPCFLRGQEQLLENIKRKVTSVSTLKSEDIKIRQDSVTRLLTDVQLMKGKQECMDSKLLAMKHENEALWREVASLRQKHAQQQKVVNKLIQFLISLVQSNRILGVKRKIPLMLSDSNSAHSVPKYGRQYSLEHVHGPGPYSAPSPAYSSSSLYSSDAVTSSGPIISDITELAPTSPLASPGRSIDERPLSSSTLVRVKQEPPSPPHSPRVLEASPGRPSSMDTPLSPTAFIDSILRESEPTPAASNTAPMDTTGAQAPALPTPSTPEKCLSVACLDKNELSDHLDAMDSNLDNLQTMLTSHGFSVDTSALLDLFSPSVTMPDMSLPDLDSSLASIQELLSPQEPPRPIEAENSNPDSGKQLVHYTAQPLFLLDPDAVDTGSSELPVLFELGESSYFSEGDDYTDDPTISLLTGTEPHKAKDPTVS

[30] = alpha-synuclein stem-loop luciferase translation blockers – H4 neuroglioma cells, luminescence, confirmation (AID 1988); format: functional, cell-based
[31] = blockade of melanocortin 4 receptor signaling – cell-based, plate reader, cherry pick, counter-screen for LGR2 antagonist project, dose response (AID 743444); format: functional;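 note: transfected HEK 293 cells stimulated with alpha-MSH peptide; potency of inhibitors of the alpha-MSH evoked signal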
[32] = luciferase reporter signal suppression in cells – H4 neuroglioma cells, luminescence, dose response (AID 1990); format: functional, cell-based
cells = format: functional, cell-based

T2 sequence (P51452 whole entry): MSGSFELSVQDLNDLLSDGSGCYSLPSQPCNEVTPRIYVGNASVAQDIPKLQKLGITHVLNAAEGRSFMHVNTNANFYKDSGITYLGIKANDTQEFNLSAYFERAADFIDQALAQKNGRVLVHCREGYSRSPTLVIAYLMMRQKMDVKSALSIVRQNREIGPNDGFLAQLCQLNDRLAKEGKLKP
Sequence of Tyrosine-protein phosphatase non-receptor type 5 (P54829 whole entry): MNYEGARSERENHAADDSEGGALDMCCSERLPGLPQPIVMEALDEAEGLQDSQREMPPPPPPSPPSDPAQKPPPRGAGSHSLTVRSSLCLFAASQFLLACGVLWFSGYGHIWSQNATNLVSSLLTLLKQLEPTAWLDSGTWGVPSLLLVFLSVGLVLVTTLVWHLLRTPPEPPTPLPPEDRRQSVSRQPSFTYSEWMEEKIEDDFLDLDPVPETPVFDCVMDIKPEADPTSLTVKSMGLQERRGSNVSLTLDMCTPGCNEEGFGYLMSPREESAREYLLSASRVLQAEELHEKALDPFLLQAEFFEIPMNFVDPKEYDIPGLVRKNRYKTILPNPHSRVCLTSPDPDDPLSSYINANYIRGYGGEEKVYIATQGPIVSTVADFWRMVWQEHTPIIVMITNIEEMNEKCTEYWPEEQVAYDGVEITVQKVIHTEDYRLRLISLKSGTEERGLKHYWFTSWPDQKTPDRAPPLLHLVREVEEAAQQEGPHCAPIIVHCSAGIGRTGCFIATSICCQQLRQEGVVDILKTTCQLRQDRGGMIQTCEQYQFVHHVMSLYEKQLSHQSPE
Sequence of Tyrosine-protein phosphatase non-receptor type 11 (Q06124 whole entry): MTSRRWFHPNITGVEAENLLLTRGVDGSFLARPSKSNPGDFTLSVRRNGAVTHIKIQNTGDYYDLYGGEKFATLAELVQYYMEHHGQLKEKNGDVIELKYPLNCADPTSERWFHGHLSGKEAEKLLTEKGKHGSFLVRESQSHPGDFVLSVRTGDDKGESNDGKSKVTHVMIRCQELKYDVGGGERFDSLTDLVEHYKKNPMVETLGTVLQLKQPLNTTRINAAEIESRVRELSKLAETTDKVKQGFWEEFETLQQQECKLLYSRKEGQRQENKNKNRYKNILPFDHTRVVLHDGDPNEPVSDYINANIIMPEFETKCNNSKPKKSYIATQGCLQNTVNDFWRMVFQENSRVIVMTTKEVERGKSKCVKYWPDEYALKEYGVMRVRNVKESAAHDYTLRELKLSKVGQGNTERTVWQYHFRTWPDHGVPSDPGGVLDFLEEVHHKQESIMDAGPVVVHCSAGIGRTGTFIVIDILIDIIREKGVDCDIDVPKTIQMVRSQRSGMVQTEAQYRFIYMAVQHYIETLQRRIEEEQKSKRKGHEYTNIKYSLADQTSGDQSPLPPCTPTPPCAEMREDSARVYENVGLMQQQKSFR

S=C(c1cn(CCOc2ccccc2)c2ccccc12)N1CCCC1
IC50 [1]: > 158 µM (not active)
IC50 [2]: 17 µM (active)
IC50 [3]: > 99 µM (inactive)
IC50 [4]: 3.97 µM (active)
IC50 [5]: 1.27 µM (active)
IC50 [6]: 0.129 µM (active)
IC50 [7]: 0.727 µM (active)
IC50 [8]: 5.47 µM (active)
IC50 [9]: > 99 µM (inactive)
IC50 [10]: 8.8 µM (active)

Brc1ccc2c(c1)-c1ccccc1C1=NCCN12
EC50 (HEK293 [11]): > 59.8 µM (inactive)
EC50 (HEK293 [12]): > 59.8 µM (inactive)

O=C(N/N=C/c1cn(-c2cccs2)nc1-c1ccccc1)c1ccccc1Br
AC50 [13]: 23 µM (active)
EC50 [14]: 31 µM (active)
AC50 [15]: 3.75 µM (active)
EC50 [16]: 30.2 µM (active)

Nc1ncnc2c1ccn2[C@@H]1O[C@H](CO)[C@@H](O)[C@H]1O [TUBERCIDIN]
IC50 (Jurkat): 7.83 µM (active)
EC50 [17]: 4.12 µM (active)
EC50 (BJ [18]): < 0.104 µM (active)
EC50 (BJ [19]): 2.08 µM (inconclusive)
AC50 [20]: 0.0912 µM (active)
AC50 [21]: 2.77 µM (active)
EC50 (BJ [22]): 5.04 µM (active)
EC50 [23]: 0.252 µM (active)
EC50 [24]: 0.204 µM (active)
AC50 [25]: 1.6 µM (active)
AC50 [26]: 0.25 µM (active)
EC50 (BJ [27]): 5.45 µM (inconclusive)
IC50 [28]: > 80 µM (inactive)
EC50 [29]: 3.06 µM (active)
EC50 [30]: < 0.1 µM (active)
AC50 [31]: 3.98 µM (active)
EC50 [32]: < 0.1 µM (active)
EC50 (cells): 0.223 µM (active)
